Experimental data as given in US6867235B2, “Helianthrone derivatives as anti-cancer agents” (Yeda Research and Development Co. Ltd., priority 2000, dated 2005).

Columns and labels:
[1] = system: U251 human glioblastoma cells; assay type: cell-based; conditions: glioblastoma cells in culture, complete darkness
Protocol: Human HL-60 leukemic cells were grown in RPMI-1640 supplemented with 15% fetal calf serum, […] and 100 units/ml penicillin-streptomycin. Human erythroleukemia K-562 cells (derived from a chronic myeloid leukemia pateient) were grown in the same medium supplemented with 10% fetal calf serum. These cells and the human U251 glioblastoma, U87MG glioblastoma and LAN5 neuroblastoma cells used in the experiments are available from the ATCC. All cell lines were cultured in a humidified 5% CO2/95% air atmosphere at 37° C.
Cell viability was monitored by the MTT assay which measures reduction of 3-(4,5-dimethylthiazol-2-yl)-2,5-diphenyl tetrazolium bromide to formasan by mitochondria of viable cells as described in Mossman, T., J. Immunogen., 21, 235-248 (1983). The cells are incubated with MTT for four hours at 37° C. and analyzed in an ELISA reader at 560 nm. The optical density of formasan generated by untreated cell cultures (O.D. control) is defined as one MTT unit. The number of MTT units in culture samples undergoing treatments is calculated as the ratio (O.D.sample−O.D.blank)/O.D.control).
Three human malignant cell lines were evaluated to sensitivity to dimethyl TMH in vitro. […] The medium was aspirated, the adherent monolayer was washed with phosphate-buffered saline, and cell viability was monitored by the MTI assay. […]

tumor neovascularization = test: Tumor neovascularization in tumor-bearing mice; conditions: mouse, in vivo
Description: These hitherto unknown attributes were detected while studying the effects of hypericin and of helianthrone derivatives on breast adenocarcinoma tumors induced in mice with the DA-3^HI cell line and on murine anaplastic squamous carcinoma tumors induced with the SQ-2 cell line. Both are highly metastatic tumors and if surgically resected after having reached a diameter larger than 5 mm, the mice will go on to develop metastases in the lungs and liver. The metastases cause death of the animals within approximately two months following surgery.
By preventing development of new blood vessels to supply a growing metastasis, the rapidly growing metastatic focus is deprived of nutrients and oxygen for its rapidly multiplying cells and the lesion degenerates.

[2] = system: SQ2 squamous cell carcinoma tumors; test: Survival after resection of SQ2 squamous cell carcinoma tumors with hypericin; assay type: in vivo, BALB/c mice; conditions: for mice alive beyond 240 days following tumor cell inoculation: resection
Protocol: In another set of experiments squamous cell carcinoma tumors were generated in BALB/c mice by inoculating 5×10^5 SQ2 cells per mouse. When the tumors reached a diameter of 1.0-1.2 cm in diameter they were removed by surgery (resected). One group of 5 mice also received three i.p injections of hypericin of 100 μg/mouse prior to surgery and two regimens of 50 μg/mouse post surgery at intervals of 5 days between each dosing. Another group of 8 mice received six hypericin i.p. injections of 100 μg/mouse prior to surgery and five regimens of 50 μg/mouse post surgery at intervals 5 days apart. One control group of 17 mice underwent surgery only without treatments with hypericin and another control group remained untreated (22 mice). Animal survival was then followed.

[3] = system: rat aorta rings, endothelial cell microvessels; test: Rat aorta ring microvessel formation in fibrin gel; assay type: cell-based; conditions: 0.1-10 μg/ml (0.2-20 μM)
Description: Rat aorta is carved into rings which are embedded in fibrin gels and cultured in MCDB 131 medium. Endothelial cells that detach from the aorta rings generate branching microvessels according to a method previously described (Nicosia R. F. and Ottinetti A. Growth of microvessels in serum-free matrix culture of rat aorta. Laboratory Investigation 63: 115, 1990).

[4] = system: DA-3HI metastatic lesions; test: Morphology of metastatic lesions after resection of DA-3HI tumors; assay type: in vivo, BALB/c mice; conditions: 5 doses of 200 μg/mouse at 5 day intervals, two months after surgery
Protocol: In an effort to understand how hypericin prevents the growth of metastases the experiment was repeated and the morphology of the metastatic lesions then followed. Primary DA-3^HI tumors were induced in BALB/c mice. Surgery was conducted on the tumors when diameters reached 8-10 mm. These mice (17 animals) were divided into two groups, one treated with 5 doses of hypericin 200 μg/mouse at 5 day intervals as previously described (9 animals) and another group served as untreated control (8 mice). The animals were grown for two more months. The mice were then sacrificed and the internal organs examined for metastatic lesions. […] This was evident only when hypericin injections were initiated very early prior to the resection of the primary tumor. These observations indicate that hypericin inhibits angiogenesis (growth of new vasculature). […] Since angiogenesis is primarily mediated by vascular endothelium growth factor (VEGF), hypericin may interfere with either the formation or secretion of VEGF from tumor cells or with its targeting of growth inducing receptors on vascular endothelial cells. […] Interference with the signal transduction pathway that culminates in the production of VEGF might be the mechanism for hypericin or helianthrone derivative-mediated inhibition of the VEGF effect that results in inhibition of metastatic lesion growth.

[5] = system: heparanase-induced angiogenesis; test: Heparanase-induced angiogenesis in the anterior chamber of the rat eye; assay type: in vivo, rats; conditions: four i.p. injections of 750 μg, 5 days after heparanase
Protocol: Four rats (250 g each) were given three intraperitoneal injections of hypericin (750 μg per dose in 5 ml water containing 3.5% ethanol) at four day intervals. The following day the animals were anesthetized with xylazine-ketamine and angiogenesis (formation of new blood vessels) was induced by inoculating 2 μl heparanase (30 μg/ml) into the frontal compartment of the eye in the cornea of one of the two eyes in each rat. A fourth intraperitoneal injections of 750 μg hypericin was applied the next day. Two positive control animals received only 2 μl heparanase (30 μg/ml) into the frontal compartment of the eye. Angiogenesis was then allowed to develop for 5 days at which time animals were anesthetized with xylazine-ketamine and examined and photographed under a binocular microscope for development of blood vessels in the anterior chamber of the eye.

[6] = system: DA-3HI induced breast adenocarcinoma tumors; test: Survival after resection of DA-3HI breast adenocarcinoma tumors with hypericin; assay type: in vivo, BALB/c mice; conditions: for survival rate: 5 days apart
Protocol: The primary tumor size at which metastases occur in DA-3^HI-derived breast adenocarcinoma tumors was initially calibrated in BALB/c mice inoculated with 5×10^5 DA-3^HI tumor cells intradermally. […] If the resection was performed on tumors with larger diameters, the mice died of metastases. A diameter of approximately 5 mm appears to be the cutoff at which metastases begin to spread.
DA-3^HI tumors were induced in 12-week old female BALB/c mice as described above. When the tumors reached diameters of 8-10 mm the mice were divided into four groups. One group of 19 mice was left untreated and in the three other groups the tumors were surgically removed. One of the resected groups received two intraperitoneal (i.p.) injections with 200 μg hypericin (HY) each 5 days apart beginning two days prior to surgery (16 mice). Another resected group received five i.p. injections with 200 μg hypericin each, 5 days apart beginning two days prior to surgery (17 mice). One resected group was not treated with hypericin (16 mice). The mice were then followed for survival. […] However, administration of 2 i.p. injections of hypericin increased the survival rate to 35% and administration of 5 hypericin doses increased the survival rate to 60%.

Cc1cc(O)c2c(=O)c3c(O)cc(O)c4c5c(O)cc(O)c6c(=O)c7c(O)cc(C)c8c1c2c(c34)c(c78)c65 [hypericin]
effect on the cultures at doses at which dimethyl-TMH kills cells [1]: no effect | neovascularization of tumors (tumor neovascularization): prevented neovascularization | inhibition of the primary tumor ([2]; SQ-2 anaplastic squamous carcinoma tumors): not inhibited | mice alive beyond 240 days following tumor cell inoculation ([2]; six i.p. injections 100 μg/mouse prior to surgery, five of 50 μg/mouse post surgery): 40% | mice alive beyond 240 days following tumor cell inoculation ([2]; three i.p. injections 100 μg/mouse prior to surgery, two of 50 μg/mouse post surgery): 60% | protection rates due to hypericin administration ([2]; versus surgery only): 20-40% | formation of organized microvessels [3]: inhibition of formation of the organized microvessels | appearance of metastatic lesions in internal organs [4]: much smaller, somewhat more necrotic and devoid of such vasculature | blood vessels in the anterior chamber of the eye [5]: absence of blood vessels | inhibition of the primary tumor ([6]; DA-3HI breast adenocarcinoma tumors): not inhibited | survival rate ([6]; day 89, resection plus 2 i.p. injections of 200 μg): 35% | survival rate ([6]; day 89, resection plus 5 i.p. injections of 200 μg): 60%
